Experiments:
[1] = tested on: Ps0 patients; experiment: Ps0 study in anti-IL-17 treatment groups: serum IL-19 and PASI; assay type: in vivo, human; conditions: for number of patients achieving at least PASI 75: title: week 16, head: Week 2
From the text: (§1) According to an exemplified embodiment, a sandwich ELISA assay for the sensitive detection of IL-19 is provided herein. According to an exemplified embodiment, a first IL-19 antibody (selected from Table 1, 2 or 3) is utilized as an IL-19 capture antibody and a second IL-19 antibody (selected from Table 1, 2 or 3) is utilized as an IL-19 reporter antibody. […] According to some embodiments, one milligram of the first IL-19 antibody (the capture antibody) is biotinylated using Pierce biotinylation kit (Cat #) and one milligram of the second IL-19 antibody (the reporter antibody) is labeled with ruthenium using MesoScale Discovery (MSD) kit for electrochemiluminescent (ECL) detection. According to such embodiment, labeled antibodies are evaluated using MALDI-TOF to ensure suitable labeling, and then diluted in 50% glycerol and stored at −20° C. prior to use.
(§2) Streptavidin-coated 96-well MSD plates are washed three times with TBST (Tris buffered saline containing 10 mmol/L Tris pH 7.40, 150 mmol/L NaCl with 1 mL Tween 20/L) and then blocked with TBS-T plus 1% BSA for 1 hour at room temperature. Plates are again washed and wells are then incubated with biotinylated IL-19 capture antibody (1 mg/L) for 1 hour. Thereafter, plates are again washed prior to patient sample testing.
(§3) During patient sample testing, a standard curve is generated using 50 μL of recombinant human IL-19 control standard (serially diluted IL-19 recombinant protein ranging from 100-0.0001 ng/L, and including a zero blank, in assay buffer of 50 mmol/L HEPES, pH 7.40, 150 mmol/L NaCl, 10 mL/L Triton X-100, 5 mmol/L EDTA, and 5 mmol/L EGTA). […] Patient samples (which, according to the present invention, may include blood, serum or plasma) are diluted 1:4 in assay buffer and added to respective wells. The plate is incubated overnight at 4° C. Following incubation, wells are aspirated and washed 3 times with TBST. Thereafter, 50 μL of ruthenium-labeled IL-19 detection antibody (0.5 mg/L) is added to the wells for a 1-hour incubation at room temperature. Following incubation, wells are aspirated and washed 3 times with TBST. Thereafter, 150 μl of 2×MSD read buffer is added. Ruthenium electrochemiluminescence in the wells is detected using a MSD Sector 6000 plate reader. Data is analyzed and IL-19 MSD immunoassay calibration curve fitting is performed using MesoScale Discovery software. SAS® software version 9.4 (PROC MIXED) is used for assessing treatment effects on IL-19 levels using a mixed effects model with an unstructured covariance matrix and log10 transformed IL-19 concentrations (SAS. Version 9.4 for UNIX; SAS Institute Inc.: Cary, N.C., 2016). Statistical analysis is generated with the ggplot and pROC packages using R version 3.3.3 statistical computing environment (www.R-project.org, Vienna, Austria, 2017).
The study includes five treatment group doses of: 10 mg (n=24), 25 mg (n=23), 75 mg (n=26), or 150 mg (n=28) of ixekizumab or placebo (n=24). Administration of all treatment doses is subcutaneous, and doses are administered starting at week 0 and every 2 weeks thereafter up to week 16 (inclusive).

[2] = tested on: PsA patients; experiment: PsA study in anti-IL-17 treatment groups: serum IL-19 and PASI; assay type: in vivo, human; conditions: for IL-19 (geometric mean) serum levels: subcutaneous
From the text: as §1, §2, §3
A study of IL-19 levels, in serum of 309 PsA patients treated with a therapeutic antibody targeting IL-17, ixekizumab, is performed. The study includes three treatment groups: (i.) anti-IL-17 treatment group, administered ixekizumab 160 mg at baseline followed by an 80 mg dose administered every two weeks thereafter for 12 weeks (n=103); (ii.) anti-IL-17 treatment group, administered ixekizumab 160 mg at baseline followed by an 80 mg dose administered every four weeks thereafter for 12 weeks (n=107); or (iii.) placebo (n=105). Administration of all treatment doses is subcutaneous. […] Serum IL-19 concentration levels are presented in Table 21; week 4 and 12 PASI prognostic values showing correlations of IL-19 serum levels and PASI in patients (21 ng/L, indicates the upper limit of the normal range of IL-19 in healthy subjects) are presented in Tables 22 and 23, respectively.

[3] = tested on: Ps0 patients; conditions: cited from earlier work
[4] = 10 mg subcutaneous every 2 weeks, week 16
[5] = 25 mg subcutaneous every 2 weeks, week 16
[6] = 75 mg subcutaneous every 2 weeks, week 16
[7] = 150 mg subcutaneous every 2 weeks, week 16
[8] = Q2W, IL-19 at week 4 and PASI at week 12
[9] = Q2W, IL-19 at week 12 and PASI at week 12
[10] = Q4W, IL-19 at week 4 and PASI at week 12
[11] = Q4W, IL-19 at week 12 and PASI at week 12

ixekizumab
IL-19 serum levels (geometric mean) ([1]; 10 mg subcutaneous every 2 weeks, Week 0 (baseline)): 111.6 pg/mL
IL-19 serum levels (geometric mean) ([1]; 10 mg subcutaneous every 2 weeks, Week 2): 45.3 pg/mL
number of patients achieving at least PASI 75 ([1]; 10 mg subcutaneous every 2 weeks, n = 19): 5
% of patients with serum IL-19 concentration ≤ 21 pg/mL [1, 4]: 42.1% (8/19)
% patients with serum IL-19 concentration ≤ 21 pg/mL achieving at least PASI 75 [1, 4]: 62.5% (5/8)
% patients with serum IL-19 concentration ≤ 21 pg/mL not achieving at least PASI 75 [1, 4]: 37.5% (3/8)^
IL-19 serum levels (geometric mean) [1, 4]: 57.3 pg/mL
IL-19 serum levels (geometric mean) ([1]; 25 mg subcutaneous every 2 weeks, Week 0 (baseline)): 89.0 pg/mL
IL-19 serum levels (geometric mean) ([1]; 25 mg subcutaneous every 2 weeks, Week 2): 22.3 pg/mL
number of patients achieving at least PASI 75 ([1]; 25 mg subcutaneous every 2 weeks, n = 20): 16
% of patients with serum IL-19 concentration ≤ 21 pg/mL [1, 5]: 70% (14/20)
% patients with serum IL-19 concentration ≤ 21 pg/mL achieving at least PASI 75 [1, 5]: 92.9% (13/14)
% patients with serum IL-19 concentration ≤ 21 pg/mL not achieving at least PASI 75 [1, 5]: 7.1% (1/14)
IL-19 serum levels (geometric mean) [1, 5]: 13.6 pg/mL
IL-19 serum levels (geometric mean) ([1]; 75 mg subcutaneous every 2 weeks, Week 0 (baseline)): 86.7 pg/mL
IL-19 serum levels (geometric mean) ([1]; 75 mg subcutaneous every 2 weeks, Week 2): 11.6 pg/mL
number of patients achieving at least PASI 75 ([1]; 75 mg subcutaneous every 2 weeks, n = 24): 21
% of patients with serum IL-19 concentration ≤ 21 pg/mL [1, 6]: 91.7% (22/24)^
% patients with serum IL-19 concentration ≤ 21 pg/mL achieving at least PASI 75 [1, 6]: 86.4% (19/22)
% patients with serum IL-19 concentration ≤ 21 pg/mL not achieving at least PASI 75 [1, 6]: 13.6% (3/22)
IL-19 serum levels (geometric mean) [1, 6]: 9.4 pg/mL
IL-19 serum levels (geometric mean) ([1]; 150 mg subcutaneous every 2 weeks, Week 0 (baseline)): 87.1 pg/mL
IL-19 serum levels (geometric mean) ([1]; 150 mg subcutaneous every 2 weeks, Week 2): 13.9 pg/mL
number of patients achieving at least PASI 75 ([1]; 150 mg subcutaneous every 2 weeks, n = 24): 22
% of patients with serum IL-19 concentration ≤ 21 pg/mL [1, 7]: 92% (23/25)
% patients with serum IL-19 concentration ≤ 21 pg/mL achieving at least PASI 75 [1, 7]: 95% (19/20)
% patients with serum IL-19 concentration ≤ 21 pg/mL not achieving at least PASI 75 [1, 7]: 5% (1/20)
IL-19 serum levels (geometric mean) [1, 7]: 11.9 pg/mL
IL-19 (geometric mean) serum levels ([2]; Q2W: 160 mg at baseline, then 80 mg every two weeks, Week 0 (baseline)): 23.0 pg/mL
IL-19 (geometric mean) serum levels ([2]; Q2W: 160 mg at baseline, then 80 mg every two weeks, Week 4): 6.0 pg/mL
IL-19 (geometric mean) serum levels ([2]; Q2W: 160 mg at baseline, then 80 mg every two weeks, Week 12): 6.1 pg/mL
% of patients with serum IL-19 concentration ≤ 21 pg/mL ([2]; Q2W, IL-19 at week 4): 97.5% (79/81)
% patients with serum IL-19 concentration ≤ 21 pg/mL achieving at least PASI 75 [2, 8]: 72.2% (57/79)
% patients with serum IL-19 concentration ≤ 21 pg/mL not achieving at least PASI 75 [2, 8]: 27.8% (22/79)
% of patients with serum IL-19 concentration ≤ 21 pg/mL ([2]; Q2W, IL-19 at week 12): 96.7% (87/90)
% patients with serum IL-19 concentration ≤ 21 pg/mL achieving at least PASI 75 [2, 9]: 73.1% (57/78)
% patients with serum IL-19 concentration ≤ 21 pg/mL not achieving at least PASI 75 [2, 9]: 26.9% (21/78)
IL-19 (geometric mean) serum levels ([2]; Q4W: 160 mg at baseline, then 80 mg every four weeks, Week 0 (baseline)): 31.3 pg/mL
IL-19 (geometric mean) serum levels ([2]; Q4W: 160 mg at baseline, then 80 mg every four weeks, Week 4): 7.6 pg/mL
IL-19 (geometric mean) serum levels ([2]; Q4W: 160 mg at baseline, then 80 mg every four weeks, Week 12): 7.3 pg/mL
% of patients with serum IL-19 concentration ≤ 21 pg/mL ([2]; Q4W, IL-19 at week 4): 90.8% (79/87)
% patients with serum IL-19 concentration ≤ 21 pg/mL achieving at least PASI 75 [2, 10]: 73.4% (58/79)
% patients with serum IL-19 concentration ≤ 21 pg/mL not achieving at least PASI 75 [2, 10]: 26.6% (21/79)
% of patients with serum IL-19 concentration ≤ 21 pg/mL ([2]; Q4W, IL-19 at week 12): 93.5% (87/93)
% patients with serum IL-19 concentration ≤ 21 pg/mL achieving at least PASI 75 [2, 11]: 74.1% (60/81)
% patients with serum IL-19 concentration ≤ 21 pg/mL not achieving at least PASI 75 [2, 11]: 25.9% (21/81)
change of serum IL-19 in words ([2]; both ixekizumab treatment groups, sustained over the 12 week treatment): lowering of IL-19 to near normal levels after 4 weeks
patients achieved a 75% reduction in PASI score (PASI 75) [3]: 90%

Reference: US12459997B2, “Compounds and methods targeting interleukin-19” (Eli Lilly and Company, priority 2018, dated 2025)
